Experimental data published in ChEMBL document CHEMBL6178021, “Optimization of Tambjamines Active against Multiple Stages of Malaria Parasites” (J Med Chem, 2025).
Values after ≈ are worked out from the molar mass of the structure shown.

What was measured:
[1] = system: HepG2; test: Cytotoxicity against human HepG2 cells assessed as cell viability measured after 48 hrs by MTT assay; type: toxicity, cell-based; settings: hepg2
[2] = system: MDR1 (human); test: Apparent permeability across basolateral to apical side in MDCK transfected with human MDR1 cells incubated for 1 hr by LC-MS analysis; settings: dog, MDCK-MDR1
[3] = system: Plasmodium falciparum; test: microbe, parasite or virus in culture; settings: Dd2, 72 h
Description: Antiplasmodial activity against asexual blood-stage Plasmodium falciparum Dd2 using 2% haematocrit and 0.2% parasitemia assessed as reduction in fluorescence measured after 72 hrs by Malaria SYBR Green I-based Fluorescence (MSF) assay

[4] = system: Plasmodium falciparum; test: microbe, parasite or virus in culture; settings: D6, 72 h
Description: Antiplasmodial activity against asexual blood-stage Plasmodium falciparum D6 using 2% haematocrit and 0.2% parasitemia assessed as reduction in fluorescence measured after 72 hrs by Malaria SYBR Green I-based Fluorescence (MSF) assay

[5] = system: MDR1 (human); test: Efflux ratio, ratio of apparent permeability across apical to basolateral side over basolateral to apical side in MDCK transfected with human MDR1 cells incubated for 1 hr by LC-MS analysis; settings: dog
[6] = in vitro; settings: human
Description: Selectivity index, ratio of IC50 for cytotoxicity against human HepG2 cells to IC50 for antiplasmodial activity against asexual blood-stage Plasmodium falciparum D6

[7] = Metabolic stability in mouse liver microsomes assessed as half life measured up to 60 mins by LC/MS analysis; type: ADME, Microsome
[8] = system: Plasmodium yoelii; test: Antimalarial activity against erythrocytic Plasmodium yoelii MRA-428 infected in CF1 mouse assessed as reduction in parasitemia at 10 mg/kg, po once daily for 4 days measured on day 5; type: functional; design: scale not given: the % may be the effect or the level left; settings: time 4 day
[9] = Solubility of the compound in potassium phosphate buffer at pH 7.4 by UV-vis spectroscopy; settings: buffer
[10] = system: Plasmodium falciparum; test: Antiplasmodial activity against asexual blood-stage Plasmodium falciparum Tm90-C2B using 2% haematocrit and 0.2% parasitemia assessed as reduction in fluorescence measured after 72 hrs by Malaria SYBR Green I-based Fluorescence (MSF) assay; type: functional, organism-based
[11] = Metabolic stability in human liver microsomes assessed as half life measured up to 60 mins by LC/MS analysis; type: ADME, Microsome
[12] = system: MDR1 (human); test: Apparent permeability across apical to basolateral side in MDCK transfected with human MDR1 cells incubated for 1 hr by LC-MS analysis; settings: dog, MDCK-MDR1
[13] = system: Plasmodium yoelii; test: Antimalarial activity against erythrocytic Plasmodium yoelii MRA-428 infected in CF1 mouse assessed as reduction in parasitemia at 25 mg/kg, po once daily for 4 days measured on day 5; type: functional; design: scale not given: the % may be the effect or the level left; settings: time 4 day
[14] = in vitro; settings: human, liver microsomes
[15] = in vitro; settings: mouse, liver microsomes
[16] = system: Plasmodium yoelii; test: Antimalarial activity against erythrocytic Plasmodium yoelii MRA-428 infected in CF1 mouse assessed as reduction in parasitemia at 50 mg/kg, po once daily for 4 days measured on day 5; type: functional; design: scale not given: the % may be the effect or the level left; settings: time 4 day
[17] = system: Plasmodium yoelii; test: Antimalarial activity against erythrocytic Plasmodium yoelii MRA-428 infected in CF1 mouse assessed as cured mouse at 50 mg/kg, po once daily for 4 days measured on day 28 day; type: functional, organism-based; settings: time 4.0 day
[18] = system: Plasmodium yoelii; test: Antimalarial activity against erythrocytic Plasmodium yoelii MRA-428 infected in CF1 mouse assessed as cured mouse at 25 mg/kg, po once daily for 4 days measured on day 28 day; type: functional, organism-based; settings: time 4.0 day

Row | SMILES | IC50 [1] [nM] | Papp B→A at 1 h [2] [×10⁻⁶ cm/s] | IC50 [3] [nM] | IC50 [4] [nM] | efflux ratio at 1 h [5] | selectivity ratio [6] | half-life [7] [min] | Activity [8] [%] | solubility [9] [µM] | IC50 [10] [nM] | half-life [11] [min] | Papp A→B at 1 h [12] [×10⁻⁶ cm/s] | Activity [13] [%] | microsomal CLint at 1 h [14] [µL/min/mg] | microsomal CLint at 1 h [15] [µL/min/mg] | Activity [16] [%] | Activity [17] | Activity [18]
1 | CCC1=C(CC)/C(=C/NC23C[C@H]4C[C@@H](C2)C[C@@H](C3)C4)N=C1c1ccc(Cl)[nH]1 | 4440 | 0.074 | 8.98 | 14.1 | 0.22 | 315 | > 60 | 23.2 | 40 (≈ 15.4 µg/mL) | 7.32 | > 60 | 0.34 | 90.7 | – | – | – | – | –
2 | CCC1=C(CC)/C(=C/NC2CCCCCC2)N=C1c1ccc(Br)[nH]1 | – | 0.001 | 224 | 281 | 0.26 | – | 58.5 | – | < 3.125 | 130 | > 60 | 0.004 | – | 13 | 23.7 | – | – | –
3 | CCC1=C(CC)/C(=C/NC2CCCCCC2)N=C1c1ccc(Cl)[nH]1 | – | 0.076 | 254 | 460 | 0.4 | – | > 60 | – | 14.4 (≈ 4.98 µg/mL) | 180 | > 60 | 0.19 | – | 22.2 | 8.33 | – | – | –
4 | COC1=C(OC)/C(=C/NC2CCCCCC2)N=C1c1ccc[nH]1 | 16500 | 2.78 | 35.6 | 56.9 | 2.7 | 290 | 14.6 | 8.81 | 199 (≈ 62.8 µg/mL) | 38.8 | 16.1 | 1.02 | 81.2 | 85.9 | 94.7 | – | – | –
5 | CCC1=C(CC)/C(=C/NC23C[C@H]4C[C@@H](C2)C[C@@H](C3)C4)N=C1c1ccc(Cc2ccc(OC)cc2)[nH]1 | 1610 | 0.008 | 0.868 | 2.08 | 0.21 | 775 | > 60 | 0 | 26.2 (≈ 12.3 µg/mL) | 3.99 | > 60 | 0.04 | – | 11.7 | 4.57 | – | – | –
6 | CCC1=C(CC)/C(=C/NC2CCCCC2)N=C1c1cc2cc(Cl)ccc2[nH]1 | – | 0.001 | 467 | 536 | 0.59 | – | > 60 | – | 30.7 (≈ 11.7 µg/mL) | 471 | 24.5 | 0.002 | – | 56.5 | 19.7 | – | – | –
7 | CCc1ccc(C2=N/C(=C\NC3CCCCC3)C3=C2OCCO3)[nH]1 | 1960 | 1.3 | 11.9 | 6.36 | 5.2 | 308 | 16.7 | 0 | 131 (≈ 42.9 µg/mL) | 1.35 | 51.3 | 0.25 | 19.4 | 27 | 82.8 | – | – | –
8 | C[C@H]1CC[C@H](N/C=C2\N=C(c3ccc[nH]3)C3=C2CCCC3)CC1 | 7770 | 0.23 | 2.36 | 5.88 | 0.85 | 1320 | 33 | – | 185 (≈ 57.2 µg/mL) | 13.1 | 25.6 | 0.27 | 41.2 | 54.1 | 41.9 | 100 | – | –
9 | CCC1=C(CC)/C(=C/N[C@H]2CC[C@H](C(=O)OC)CC2)N=C1c1ccc[nH]1 | – | 0.74 | 299 | 367 | 8.4 | – | 12.6 | – | 121 (≈ 43 µg/mL) | 405 | 14.4 | 0.088 | – | 96.4 | 110 | – | Not active; None Of The Mouse Cured Out Of Four Tested | –
10 | CCC1=C(CC)/C(=C/NC23C[C@H]4C[C@@H](C2)C[C@@H](C3)C4)N=C1c1ccc(-c2ccccc2)[nH]1 | 2060 | 0.002 | 1.33 | 2.58 | – | 800 | 15.1 | 0 | < 3.125 | 1.83 | 46.9 | 2.85 | – | 29.5 | 91.8 | – | – | –
11 | CCC1=C(CC)/C(=C/NC23C[C@H]4C[C@@H](C2)C[C@@H](C3)C4)N=C1c1ccc(-c2ccc(OC)cc2)[nH]1 | 999 | 0.016 | 5.37 | 8.88 | 0.53 | 113 | 12.1 | 11.5 | 12.4 (≈ 5.65 µg/mL) | 8.02 | 12.2 | 0.03 | – | 114 | 110 | – | – | –
12 | C(/NC12C[C@H]3C[C@@H](C1)C[C@@H](C2)C3)=C1/N=C(c2ccc[nH]2)C2=C1OCCO2 | 3760 | 0.85 | 8.4 | – | 6.1 | 444 | 27.9 | 0 | 114 (≈ 40.1 µg/mL) | 3.91 | 11.7 | 0.14 | – | 118 | 49.8 | – | – | –
13 | COC(=O)[C@H]1CC[C@H](N/C=C2\N=C(c3ccc[nH]3)C3=C2CCCC3)CC1 | 19900 | 1.1 | 157 | – | 4.8 | 334 | 10.3 | – | 383 (≈ 135 µg/mL) | 170 | 16.7 | 0.23 | – | 82.9 | 134 | 100 | – | –
14 | CCC1=C(CC)/C(=C/NC23C[C@H]4C[C@@H](C2)C[C@@H](C3)C4)N=C1c1ccccc1O | 12200 | – | 188 | 130 | – | 93 | – | – | – | 310 | – | – | – | – | – | – | – | –
15 | COc1ccc(C2=C(c3ccc(OC)cc3)/C(=C/NC34C[C@H]5C[C@@H](C3)C[C@@H](C4)C5)N=C2c2ccc[nH]2)cc1 | 7940 | 0.005 | 15.3 | – | 0.079 | 496 | > 60 | – | 10.7 (≈ 5.41 µg/mL) | 15.1 | 52.1 | 0.059 | – | 26.6 | 12.2 | – | – | –
16 | FC(F)(F)[C@H]1CC[C@H](N/C=C2\N=C(c3ccc[nH]3)C3=C2CCCC3)CC1 | 12400 | 0.52 | 49.6 | – | 0.43 | 366 | > 60 | – | 237 (≈ 86.1 µg/mL) | 32.7 | 33.9 | 1.2 | 100 | 40.8 | 5.49 | 100 | Not active; One Mouse Cured Out Of Four | Not active; None Of The Mouse Cured Out Of Four Tested
17 | CCC1=C(CC)/C(=C/NC23C[C@H]4C[C@@H](C2)C[C@@H](C3)C4)N=C1c1cc2cc(OC)ccc2[nH]1 | 5250 | 0.001 | 45.7 | 41.9 | 0.59 | 125 | > 60 | 87.2 | 24.4 (≈ 10.5 µg/mL) | 55.9 | > 60 | 0.002 | 93.8 | 6.19 | 9.13 | – | – | –
18 | CCC1=C(CC)/C(=C/NC2CCCCC2)N=C1c1ccc(Cl)[nH]1 | – | 0.12 | 232 | 391 | 0.17 | – | > 60 | – | 22.6 (≈ 7.5 µg/mL) | 202 | > 60 | 0.71 | – | 8.01 | 0.67 | – | – | –
